Experimental findings from paper PMC5603512, “Discovery, Semisynthesis, Antiparasitic and Cytotoxic Evaluation of 14-Membered Resorcylic Acid Lactones and Their Derivatives” (Scientific Reports, 2017) are described below.

The structures appear in SMILES notation. Like-named read-outs stand apart in the source and are kept apart here.

Data set [1] in a line: Cytotoxicity SRB assay, HeLa. The note with it: human. As for the experimental part: (§1) All of the compounds were also evaluated for their cytotoxic properties against six human cancer cell lines (lung carcinoma epithelian (A549), colon carcinoma (HCT-116), pancreatic carcinoma (BXPC-3), breast cancer (MCF-7), cervical epithelium (HeLa), and erythroleukemic (K562)) and a human umbilical vein endothelial cell (HUVEC) line (Table 2).
(§2) The cytotoxicity against HCT-116, BXPC-3, HeLa, MCF-7, A-549, and HUVEC cell lines was evaluated using the SRB method. The cytotoxicity against K562 and Vero cell lines was evaluated using the MTT method. Adriamycin was used as a positive control. All cells were cultivated in T-75 flasks containing 10% Fetal Bovine Serum (FBS), Dulbeco’s Modified Eagle Medium (DMEM) with 2 mM L-glutamine, and 1% penicillin-streptomycin at 37 °C in a humidified atmosphere with 5% CO2. For SRB assay, cells in their log phase of growth were seeded into 96 well micro plates (4 × 10^4 cells per well) and followed by treating with test samples at 10 μM or DMSO. After incubation at 37 °C for 72 h, the cells were fixed with the cold 20% (w/v) TCA for 2 h and stained with Sulforhodamine B (SRB) dye for 0.5 h. The protein-bound dye is dissolved in Tris base solution for OD determination at 540 nm on an ELISA Plate Reader. For MTT assay, cells (5 × 10^3 cells per well) were plated in 96 well micro plates. After cell attachment overnight, new medium containing test compounds or DMSO was added. The plate was incubated for 48 h at 37 °C and incubated with 3-(4,5-dimethylthiazol-2-yl)-2,5-diphenyltetrazolium bromide (MTT) for additional 2–4 hours. The assay plate was then read at 490 nm on an ELISA Plate Reader. The data were obtained from experiments carried out in triplicate.

Data set [2] in a line: Cytotoxicity MTT assay, K562. The note with it: human. As to the method: as §1, §2
A short description of data set [3]: Cytotoxicity SRB assay, BXPC-3. The note with it: human. As to the method:
as §1, §2

Data set [4] in a line: Cytotoxicity SRB assay, A-549. The note with it: human. As for the experimental part:
as §1, §2

Data set [5] is described as follows: Cytotoxicity SRB assay, HCT-116. The following applies: human. As for the experimental part:
as §1, §2

A short description of data set [6]: Cytotoxicity SRB assay, MCF-7. The note with it: human. As for the experimental part:
as §1, §2

For data set [7], the system named is Leishmania donovani. The experiment in a line: Antileishmanial assay (PicoGreen). The data set is classed as cell-based. As to the method:
The anti-leishmania activity was evaluated following the protocol described by Calderon et al.[39], using the fluorescent DNA intercalator PicoGreen (Invitrogen, USA). The species responsible for visceral leishmaniasis, L. donovani, was used for the assays.

Data set [8] concerns Trypanosoma cruzi. The experiment in a line: Antitrypanosomal assay (beta-galactosidase reporter, intracellular amastigotes in Vero cells). On Trypanosoma cruzi IC50: key: I: Inactive. The data set is classed as cell-based. The following applies: for Trypanosoma cruzi IC50: Tulahuen clone C4, intracellular amastigotes in Vero cells, 120 h. As for the experimental part: Briefly, the expression of the reporter gene for beta-galactosidase (β-Gal) in the Tulahuen clone C4 of T. cruzi is assessed by colorimetry at 570 nm, which correlates with the parasite growth. Assays were performed on the intracellular amastigote form of the parasite infecting African green monkey kidney (Vero) cells, incubated for 120 h at 37 °C with 5% CO2.

For data set [9], the system named is Plasmodium falciparum. The experiment in a line: Antiplasmodial assay (PicoGreen growth inhibition in infected human erythrocytes). The data set is classed as cell-based. As for the experimental part:
Activity against the causative agent of malaria was performed by culturing human erythrocytes and infecting them with P. falciparum, as described by Trager and Jensen[36]. Briefly, the W2 (Chloroquine resistant) and 3D7 (Chloroquine sensitive) strains of P. falciparum were cultured in RPMI 1640 medium (Sigma-Aldrich, USA) supplemented with 10% human serum (from O+ blood) at a hematocrit of 2% erythrocytes (O+) at 37 °C in a gas mixture of 5% CO2, 5% O2, and 90% N2. Parasites were synchronized by a temperature cycling technique as described by Almanza et al.[37]

[10] abbreviates: BXPC-3 pancreatic carcinoma cells.
Setting [11] is: read-out: Leishmania donovani IC50.
The mark [12] stands for this setting: 3D7, Erythrocyte, read-out: Plasmodium falciparum IC50.
The mark [13] stands for this setting: in vitro, read-out: Leishmania donovani IC50.
[14] abbreviates: Erythrocyte, in vitro, W2 and 3D7 strains cultured, strain of the values not stated, read-out: Plasmodium falciparum IC50.

Turning to `COc1cccc2c1C(=O)c1c(O)c3c(c(O)c1C2=O)C[C@@](O)(C(=O)CO)C[C@@H]3O[C@H]1C[C@H](N)[C@H](O)[C@H](C)O1` [Adriamycin, reference compound], the IC50 at 72 h in data set [1] (HeLa cervical epithelium cells) stood at 0.6 µM; in data set [3] (setting [10]), 0.033 µM; in [4] (A-549 lung carcinoma cells), 0.16 µM; in data set [5] (HCT-116 colon carcinoma cells), 0.21 µM; in [6] (MCF-7 breast cancer cells) it was 0.86 µM. This molecule also displayed an IC50 at 48 h in [2] (K562 erythroleukemic cells) of 0.25 µM.

For `C[C@@H]1[C@H](O)[C@@H](C)/C=C/C=C/C=C/C=C/C=C/C=C/C=C/[C@H](O[C@@H]2O[C@H](C)[C@@H](O)[C@H](N)[C@@H]2O)C[C@@H]2O[C@](O)(C[C@@H](O)C[C@@H](O)[C@H](O)CC[C@@H](O)C[C@@H](O)CC(=O)O[C@H]1C)C[C@H](O)[C@H]2C(=O)O` [Amphotericin B, reference compound], the IC50 in data set [7] (positive control, sentence ends with ref 40, read-out: IC50 of positive control, antileishmanial assay) came out at 0.0763 µM.

Take `COc1cc(O)c2c(c1Cl)/C=C/C[C@H](O)[C@H](O)[C@@H](O)CCC[C@H](C)OC2=O` [Compound 2, cochliomycin C]: the IC50 at 72 h in data set [1], in [3], in data set [4], in data set [5] and in data set [6] was more than 10 µM throughout. For the same molecule, in data set [2], the IC50 at 48 h was more than 10 µM. For the same molecule, the “Trypanosoma cruzi IC50” value in [8] is given as “I”. Moreover, the IC50 in data set [7] (setting [11]) is more than 15.7 µM; in [9] (setting [12]), more than 30.7 µM.

Take `COc1cc(O)c2c(c1)/C=C/C[C@H](O)[C@@H](O)C(=O)/C=C/C[C@H](C)OC2=O` [Compound 4]: the concentration for half-maximal inhibition (IC50) at 72 h in [1] (HeLa cervical epithelium cells), in data set [3] (setting [10]), in [4] (A-549 lung carcinoma cells), in data set [5] (HCT-116 colon carcinoma cells) and in [6] (MCF-7 breast cancer cells) was more than 10 µM in each case. In data set [2] (K562 erythroleukemic cells), this molecule yielded an IC50 at 48 h of more than 10 µM. Further, the “Trypanosoma cruzi IC50” value in data set [8] was “I”. The IC50 in data set [7] (setting [13]) is 15.2 µM; in data set [9] (setting [14]), more than 30.7 µM.

For `COc1cc(O)c2c(c1)/C=C/C[C@@H](O)[C@@H](O)C(=O)/C=C/C[C@H](C)OC2=O` [Compound 5], the IC50 at 72 h in data set [1] (HeLa cervical epithelium cells), in data set [3] (setting [10]), in data set [4] (A-549 lung carcinoma cells), in [5] (HCT-116 colon carcinoma cells) and in data set [6] (MCF-7 breast cancer cells) was more than 10 µM throughout. Besides, in data set [2] (K562 erythroleukemic cells), the IC50 at 48 h was more than 10 µM. Also, the “Trypanosoma cruzi IC50” value in data set [8] is listed as “I”. Moreover, the results for the IC50 in data set [7] (setting [13]) and in data set [9] (setting [14]) were more than 15.7 µM and more than 30.7 µM, respectively.

`CCC(=O)Oc1cc(OC)cc2c1C(=O)O[C@@H](C)C/C=C/[C@H](OC(=O)CC)[C@@H](OC(=O)CC)[C@@H](OC(=O)CC)C/C=C/2` [Compound 14]: the IC50 at 72 h in [1] (HeLa cervical epithelium cells), in data set [3] (setting [10]), in [4] (A-549 lung carcinoma cells), in data set [5] (HCT-116 colon carcinoma cells) and in [6] (MCF-7 breast cancer cells) was more than 10 µM each time. Besides, in [2] (K562 erythroleukemic cells), the IC50 at 48 h is more than 10 µM. In addition, the “Trypanosoma cruzi IC50” value in data set [8] is recorded as “I”. Moreover, the figures for the IC50 in data set [7] (setting [13]) and in data set [9] (setting [14]) were more than 15.7 µM and more than 30.7 µM, respectively.

For the molecule `COc1cc(OC(C)=O)c2c(c1Cl)/C=C/C[C@H](OC(C)=O)[C@H](OC(C)=O)[C@@H](OC(C)=O)CCC[C@H](C)OC2=O` [Compound 19], the IC50 at 72 h in data set [1], in data set [3], in data set [4], in [5] and in data set [6] was more than 10 µM throughout. In data set [2], this molecule showed an IC50 at 48 h of more than 10 µM. In addition, the “Trypanosoma cruzi IC50” value in data set [8] is recorded as “I”. Further, the IC50 in data set [7] (setting [11]) is more than 15.7 µM; in data set [9] (setting [12]), more than 30.7 µM.

On to `O=C(Cn1ccnc1[N+](=O)[O-])NCc1ccccc1` [benznidazole, reference compound], for which the IC50 in [8] (Trypanosoma cruzi, Vero, control drug, sentence ends with ref 41, read-out: IC50 of control drug, antitrypanosomal assay) is 3.85 µM.

For the molecule `CCN(CC)CCCC(C)Nc1ccnc2cc(Cl)ccc12` (stereo not drawn) [chloroquine, reference compound], the half-maximal inhibitory concentration (IC50) in data set [9] (Erythrocyte, read-out: IC50 of positive control, antiplasmodial assay) came out at 0.0329 µM.
